With `OC1(c2ccc(Cl)cc2)CCN(CCCOc2ccc(F)cc2)CC1`, the melting point is 134 to 135 °C. As for `O=C1[C@@H](O)CCN1CC#CCn1ccnc1`, the melting point was in the range of 127 to 128 °C. In the case of `CC(C)N1CC2CC(CN(C(=O)c3ccc(Cl)cc3)C2)C1`, the melting point fell in the range of 97 to 98 °C. The same measure for `CC(=O)N1CCCC1CN1C(=O)C2(COc3cc4c(cc32)CCO4)c2ccccc21` (stereo not given): 103 to 108 °C; for `COc1c(F)cc2c(O)c(C(=O)NCc3ccc(Cl)cc3)cnc2c1OC`: 228 to 229 °C. The result for `COc1ccc(S(=O)(=O)N2C(=O)C(OCC(=O)N3CCN(c4ccncc4)CC3)(c3ccccc3OC(C)C)c3cc(Cl)ccc32)c(OC)c1` (stereo not given) reads 201 to 203 °C. Compound `C=C(C)C(C(=O)OCC(Cl)(Cl)Cl)N1C(=O)C(NC(=O)Cc2ccccc2)C1SSc1nc2ccccc2s1` (stereo not given) yielded a melting point of 133 to 134 °C. `CCCc1c(OCCCSc2nnc(SCC(=O)O)s2)ccc(C(C)=O)c1O` gave a melting point of 129 to 130 °C. Take `COC(=O)C1CCCC(=C(N)c2ccc(Cl)cc2)C(=O)C1` (stereo not given): the melting point was 154 to 155 °C. On to `CCOC(=O)c1cc(N(C)S(C)(=O)=O)c(C)nc1C(=O)OCC`, for which the melting point is 90 to 93 °C. `CCOC(=O)Cc1c(C(=O)OCC)sc2c1cc(C(=O)OCC)n2CC(=O)OCC` gave a melting point of 190 °C. The same measure for `Cc1noc(-c2ccc([C@H]3CN(C(=O)OC(C)(C)C)CCO3)cc2)n1`: 116 °C; for `CC(Oc1ccc(Cl)cc1)c1nnc(N2C(=O)N(C)CC2O)s1` (stereo not given): 147 to 149 °C. The result for `CN(O)C(=O)c1ccc(OCCOc2ccccc2)cc1` reads 134 to 136 °C; that for `CCn1c(=O)c(-c2ccsc2)cc2cnc(Nc3ccccc3)nc21`, 223 to 225 °C. Consider `O=C1CCC(N2Cc3c(OCc4ccc(CN5CCc6ncccc6C5)cc4)cccc3C2=O)C(=O)N1` (stereo not given), for which the melting point was 163 to 165 °C. Compound `COc1ccc(-c2nc3n(c2-c2ccc(OC)cc2)CCS3)cc1` yielded a melting point of 155 to 158 °C. `c1cc(-c2ccc(N3CCCN(c4ccc(-c5ccsc5)cn4)CC3)nc2)cs1` returned a melting point of 234 to 236 °C. The result for `CC(=O)Nc1ccc(S(N)(=O)=O)cc1[N+](=O)[O-]` reads 182 to 183 °C; that for `CCN1CSC(=Cc2cc(C(C)(C)C)c(O)c(C(C)(C)C)c2)C1=O`, 169 to 172 °C.

Compound `CCOC(=O)c1c(-c2ccccc2)c(Cc2cccc(F)c2C)cn1N` yielded a melting point of 87 to 88 °C. Regarding `O=C(NCCO)c1c([N+](=O)[O-])ccc(N(CCBr)CCBr)c1[N+](=O)[O-]`, the melting point lay in the range of 94 to 97 °C. In turn, `CS(=O)(=O)c1ccc(-c2nn(Cc3ccc(Cl)cc3Cl)c(=O)cc2-c2ccc(F)cc2)cc1` gave a melting point of 212 °C. The compound `Nc1c(Cl)c(Br)cc2[nH]c(=O)c(=O)[nH]c12` gave a melting point of over 350 °C. `CCC1OC(Cn2cncn2)(c2ccc(Cl)cc2Cl)OC1C` (stereo not given) yielded a melting point of 109 to 113 °C.

With `CSc1cc(C)nc(SC)c1NC(=O)CN1CCN(CCCSc2nc3ccccc3o2)CC1`, the melting point fell in the range of 160 to 161 °C. `CN(C)c1ccc(/C=C/c2c(F)cccc2F)c(N)c1` displayed a melting point of 97 to 98 °C.

`CCn1c(C)nc2cc(C(N)=O)ccc21` gave a melting point of 251 °C. The result for `Cc1cccc2c1nc(-c1c(F)cccc1F)n2Cc1cccnc1` reads 131 to 132 °C; that for `N#CC(c1cccnc1)C1CCN(C(=O)CC(NC(=O)c2cccc(OCc3ccc4ccccc4n3)c2)c2ccccc2)CC1` (stereo not given), 91 to 97 °C. `CCOC(=O)CNc1c([N+](=O)[O-])cc([N+](=O)[O-])c2ccccc12` came in with a melting point of over 305 °C.

`COc1cc2c(c(Cl)c1Cl)C(=O)C(C)(c1cccs1)C2` (stereo not given): the melting point lay in the range of 145 to 146 °C. Turning to `Cc1c(-c2ccncc2)[nH]c(-c2ccncc2)c1CO`, the melting point is 258 to 261 °C. For the compound `CC(=O)c1cc(C(C)=O)c(O)c(C(C)C)c1O`, the melting point lay within 132 to 133 °C. For the compound `CC(=O)N1C(C)(C)CC(Oc2nc(OC3CC(C)(C)N(O)C(C)(C)C3)nc(N3C(C)(C)CCCC3(C)C)n2)CC1(C)C`, the melting point fell in the range of 175 to 176 °C. The same measure for `Cc1nn(-c2ccc(F)cc2)c(C)c1C(=O)Nc1ccc(OCC(C)(C)C)c(C#N)c1`: 174 to 175 °C; for `CC(=O)NC[C@H]1CN(c2ccc(-n3nccc3-c3ccncc3)c(F)c2)C(=O)O1`: 74.5 to 76.3 °C; for `COc1ccc(C=Cc2nnc(C(Br)(Br)Br)o2)cc1`: 160 to 161 °C. In the case of `CN1CCN(c2nc(Nc3cccc(NS(C)(=O)=O)c3)nc3[nH]cnc23)CC1`, the melting point lay in the range of 148 to 151 °C. Compound `C1CCN(c2nc(N3CCCC3)c3nc(N4CCCCC4)nc(N4CCCC4)c3n2)CC1` gave a melting point of 254 to 256 °C. `COc1cc(CC(C)(C)C(=O)O)cc2c1OC(C)(C)C2`: the melting point lay in the range of 88 to 89 °C. The same measure for `CN(CCc1ccc(N)cc1)C1Cc2ccc(N)cc2C1` (stereo not given): 112 to 114 °C; for `COC(=O)c1ccccc1Oc1ccc(C)cc1[N+](=O)[O-]`: 71 to 73 °C. The compound `Cc1nc2c(O[C@@H]3c4ccccc4C[C@H]3OS(C)(=O)=O)cccn2c1C=O` (relative stereo) yielded a melting point of 158 to 160 °C.

Compound `COc1ccccc1CNc1ccc2cc(Nc3ncccn3)ccc2n1` displayed a melting point of 175 °C. Take `COc1cc(CN2C(C(=O)O)=C(c3ccc4c(c3)OCO4)c3ccccc3S2(=O)=O)cc2c1OCO2`: the melting point fell in the range of 181 to 182 °C.

`Cn1c2c(c3cc(OCc4ccccc4)ccc31)CC(CCN)C2` (stereo not given) registered a melting point of 72 to 75 °C. In turn, `O=[N+]([O-])c1cnc(Sc2cncc(Cl)n2)s1` had a melting point of 108 to 110 °C. The result for `Cc1cc(C#N)cc(C)c1Oc1nc(Nc2ccc(C#N)cc2)ncc1N` reads over 300 °C; that for `CCCCCCNc1ncnc(N(C)C)c1N`, 123 to 125 °C. `CC(CS(=O)(=O)c1ccccc1)C1CCC2C3CC=C4C(C)(C)C(O)CCC4(C)C3CCC12C` (stereo not given) gave a melting point of 176 to 181 °C. Take `COc1ccc(-c2cc3ccccc3[nH]2)cc1NC(=S)Nc1ccc(C(=O)O)cc1`: the melting point was in the range of 201 to 203 °C.

On to `Oc1cccc(C2=CCCN(CCc3ccccc3)C2)c1`, for which the melting point came to 155 °C. `Cc1noc(NS(=O)(=O)c2ccc(C(C)C)cc2)c1Br` yielded a melting point of 130 to 133 °C.

For `FC(F)C(Cl)=NC(c1ccccc1)(c1ccccc1)c1ccccc1`, the melting point lay within 154 to 156 °C. The result for `COc1c(C)c(=O)oc2cc(-c3ccc(C(C)C)cc3)ccc12` reads 129 °C; that for `O[C@H]1COC(c2ccc(Cl)cc2)=N[C@@H]1c1ccccc1` (racemic), 142 °C; that for `COc1ccc(NC(=O)Oc2ccc3c(c2)N(Cc2ccccc2)CCC3)cc1`, 170 °C. In the case of `CSNC(=O)c1c(Cl)cccc1[Si](C)(C)C`, the melting point fell in the range of 92 to 94 °C.

Consider `COc1ccccc1-n1c(=O)[nH]c2c(C(N)=O)nc(-n3cnc4ccccc43)nc21`, for which the melting point was in the range of 318 to 319 °C.

`Cc1cc(Cn2cnc(Cl)c2CC#N)ccc1OCc1ccccc1` yielded a melting point of 102 to 105 °C. The result for `CC(C)(CN)c1ccc2nc(-c3ccncc3)[nH]c2c1` reads 199 to 202 °C; that for `COc1cc(N)c(C)cc1N=Nc1ccc([N+](=O)[O-])cc1`, 136 to 137 °C. `O=C1OCCC1Oc1ccc(C(F)(F)F)cc1` (stereo not given) had a melting point of 84 to 86 °C. In turn, `CCOC(=O)Cc1c(C(=O)OCC)c(C)c(C(=O)c2ccc(Cl)cc2)n1C` registered a melting point of 91 to 93 °C. As for `Cc1cc(-c2ccc(C(F)(F)F)cc2)cc(-c2nc(-c3cccc(S(N)(=O)=O)c3)cs2)n1`, the melting point was over 250 °C. On to `COc1cc2nc(S(=O)(=O)Nc3c(OC)ccnc3Cl)nn2c(OC)n1`, for which the melting point lay within 197 to 199 °C. Compound `N#Cc1cnc2sc(C#Cc3ccncc3)cc2c1Nc1ccc2[nH]ccc2c1` came in with a melting point of over 250 °C. In turn, `Cn1cnc2nc(C#Cc3ccccc3)nn2c1=S` displayed a melting point of 290 to 295 °C. The same measure for `COc1cc(COc2ccccc2CC(=O)O)ccc1OCc1nc(-c2ccccc2)oc1C`: 165 to 166 °C.

`CC(C)(C)c1cccc(C[C@@H](NC(=O)c2cccc3c2C=CCCC3)[C@@H](O)c2cccc(Cl)c2)c1` (racemic) returned a melting point of 104 to 105 °C.

In turn, `N#CCCNC(=O)c1n[nH]cc1NC(=O)c1cccc(C#N)c1` came in with a melting point of 248 to 249 °C.

The compound `O=C(C=Cc1ccco1)c1cnc2sc3c(n12)CCCCC3` registered a melting point of 161 to 162 °C. Compound `Cc1cccc(-c2n[nH]cc2-c2ccc(F)c(-c3ccc(C(C)(C)O)cn3)c2)n1` displayed a melting point of 169 to 172 °C. On to `CCCC(=O)c1cc2c(=O)cc(C(=O)O)[nH]c2c(C)c1C`, for which the melting point fell in the range of 267 to 269 °C. In turn, `COC(=O)c1cccc(OCCCNC(=O)C[C@H]2O[C@H](c3cccc(OC)c3OC)c3cc(Cl)ccc3N(CC(C)(C)CO)C2=O)c1` registered a melting point of 99 to 100 °C. As for `Fc1ccc(-c2cc(C(F)(F)F)n3cnc(-c4ccncc4)c3n2)cc1Cl`, the melting point was found to be 266 °C. Turning to `Nc1c(Cl)cccc1NC(=S)Nc1cscc1Cl`, the melting point fell in the range of 276 to 280 °C.

With `Oc1ccc(C2(c3ccc(O)c(F)c3)c3ccccc3-c3ccccc32)cc1F`, the melting point is 219 to 221 °C. As for `COC(=O)c1ccc(N2CCOCC2)c(NC(=N)N)c1`, the melting point fell in the range of 152 to 154 °C. Take `NCCOc1ccc(/C(=C(\c2ccccc2)C(F)(F)F)c2ccccc2)cc1`: the melting point was 71 to 76 °C.

With `Cc1ccc(-c2cc(C(F)(F)F)n3ncc(-c4cccnc4)c3n2)cc1C(F)(F)F`, the melting point was determined as 182 °C.

`COc1ccc(S(=O)(=O)Nc2ccc(COc3ccc4c(c3)CCC(CN(C)C)C4)cc2)cc1` (stereo not given) gave a melting point of 137 to 140 °C.

Compound `Cc1cc2c(-c3cccc(C=O)c3)c(CC(=O)Nc3ccc(F)cc3C(F)(F)F)c(=O)oc2cc1Cl` yielded a melting point of 214 to 215 °C.

`COc1ccc2c(c1)C(=O)C(=Cc1ccc(F)cc1)CC2` came in with a melting point of 129 to 130 °C.

(Values after a melting point compilation (Tetko et al.; mined from patent text by program, amines drawn as free bases though some values may be those of a salt).)
